# Values of other authors in US20230149402A1, “SOLID PHARMACEUTICAL PREPARATION, PREPARATION METHOD THEREFOR AND USE THEREOF” (SHANGHAI HAIYAN PHARMACEUTICAL TECHNOLOGY CO., LTD, priority 2020, published 2023).
# Legend:
# hOX1R = molecular target: T1, hOX1R (Homo sapiens, UniProt O43613); settings: FLIPR, read-out: IC50, inhibitory effect on OX1 GPCR receptor
# T1 sequence (O43613 1-425): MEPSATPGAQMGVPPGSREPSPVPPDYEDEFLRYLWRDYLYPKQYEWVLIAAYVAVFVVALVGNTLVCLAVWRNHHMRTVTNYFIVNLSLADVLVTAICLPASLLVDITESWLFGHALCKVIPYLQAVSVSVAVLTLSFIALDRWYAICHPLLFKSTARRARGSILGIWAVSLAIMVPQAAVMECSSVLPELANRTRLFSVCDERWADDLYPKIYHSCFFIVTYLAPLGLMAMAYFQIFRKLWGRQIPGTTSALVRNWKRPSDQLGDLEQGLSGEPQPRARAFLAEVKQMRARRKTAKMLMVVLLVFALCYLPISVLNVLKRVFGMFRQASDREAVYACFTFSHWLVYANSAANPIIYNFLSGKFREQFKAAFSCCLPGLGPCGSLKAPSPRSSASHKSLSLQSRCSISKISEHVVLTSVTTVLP
# hOX2R = molecular target: T2, hOX2R (Homo sapiens, UniProt O43614); settings: FLIPR, read-out: IC50, inhibitory effect on OX2 GPCR receptor
# T2 sequence (O43614 1-444): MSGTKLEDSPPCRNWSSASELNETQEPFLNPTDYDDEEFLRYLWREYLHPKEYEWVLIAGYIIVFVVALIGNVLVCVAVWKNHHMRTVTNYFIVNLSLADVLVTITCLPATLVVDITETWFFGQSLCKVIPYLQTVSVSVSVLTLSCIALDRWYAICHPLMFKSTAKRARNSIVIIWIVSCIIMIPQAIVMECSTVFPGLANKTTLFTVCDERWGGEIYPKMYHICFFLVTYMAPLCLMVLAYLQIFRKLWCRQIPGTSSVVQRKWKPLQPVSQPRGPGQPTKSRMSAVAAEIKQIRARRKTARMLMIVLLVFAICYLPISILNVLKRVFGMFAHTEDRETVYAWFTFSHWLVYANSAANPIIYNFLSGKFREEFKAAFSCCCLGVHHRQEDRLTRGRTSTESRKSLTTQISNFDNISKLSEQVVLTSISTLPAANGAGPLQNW
smiles,measurement,setting,value
"Cc1ccc(-c2ncccn2)c(C(=O)N2[C@H]3CC[C@@H](COc4ccc(F)cn4)[C@@H]2CC3)c1 [compound of formula (II), ((1S,2R,5S)-2-(((5-fluoropyridin-2-yl)oxy)methyl)-8-azabicyclo[3.2.1]octan-8-yl)(5-methyl-2-(pyrimidin-2-yl)phenyl)methanone]",IC50,hOX1R,20 nM
same,IC50,hOX2R,36 nM
